Earlier results in paper PMC9232612, “A phase 1b randomised controlled trial of a glucagon-like peptide-1 and glucagon receptor dual agonist IBI362 (LY3305677) in Chinese patients with type 2 diabetes” (Nature Communications, 2022).

Tests used:
[1] = tested on: patients with T2D; conditions: daily-dose, Japanese patients with T2D; cited from earlier work
Description: Several GLP-1 and glucagon dual agonists have shown either glycaemic control or weight loss benefit in various settings. […] SAR425899, a […] GLP-1 and glucagon receptor dual agonist, achieved placebo-adjusted mean HbA1c level reductions up to 0.75% in patients with overweight or obesity and T2D[11].

[2] = phase 2a, after 49 days of drug exposure; ref Parker VER et al. JCEM 2021;105(3):803-20; cited from earlier work
Experimental: page 3: doses of IBI362 (4.5 and 6 mg). It would be helpful to provide the time course of the GI adverse events to ascertain whether they occurred during the up-titration phase and whether the symptoms persisted during the 12 weeks. Only one participant in the IBI362 4.5 mg cohort withdrew from the study due to decreased appetite. The cardiovascular safety profile of IBI362 reported in this manuscript raised some safety concerns and will be addressed in greater detail herein. Cardiovascular disorders were reported in 5 participants receiving IBI362 compared with one in each of the placebo and ...

Cotadutide
reduction in body weight from baseline to day 50 (up to) [1]: up to 3.3%
mean change in diastolic BP [2]: +1.16 mm Hg
mean change in systolic BP [2]: -2.8 mm Hg
mean increase in heart rate [2]: +7.1 BPM
